How the values were obtained:
[1] = Phase 1 plasma pharmacokinetics after single and multiple oral doses; format: in vivo, human; settings: for AUC(0-t) / half-life / Tmax: human, plasma, oral; for AUC(0-t): plasma AUC0–12 h
[2] = Phase 1 CSF pharmacokinetics; format: in vivo, human; settings: for concentration at 12 h: Min (C 12 h)
[3] = 50 mg bid solution, fasted, nonelderly, day 11, geo mean (CV%)

CCCOc1ccc([C@H]2CNC(=O)N2c2ccc3[nH]cnc3c2)cc1 [PQ912]
AUC(0-t) ([1]; 100 mg, 100 mg bid solution, fed, nonelderly, day 11, geo mean (CV%)): 969 ng·h/mL
half-life ([1]; 100 mg, plasma t1/2 (apparent terminal), 100 mg bid solution, fed, nonelderly, day 11, geo mean (CV%)): 3.46 h
half-life ([1]; 100 mg, plasma t1/2,eff (2–12 h postdose), 100 mg bid solution, fed, nonelderly, day 11, geo mean (CV%)): 2.44 h
Tmax ([1]; 100 mg, plasma tmax, 100 mg bid solution, fed, nonelderly, day 11, median (min–max)): 0.75 h
AUC(0-t) ([1]; 200 mg, 200 mg bid capsule, fasted, elderly, day 7, geo mean (CV%)): 3890 ng·h/mL
half-life ([1]; 200 mg, plasma t1/2 (apparent terminal), 200 mg bid capsule, fasted, elderly, day 7, geo mean (CV%)): 7.55 h
half-life ([1]; 200 mg, plasma t1/2,eff (2–12 h postdose), 200 mg bid capsule, fasted, elderly, day 7, geo mean (CV%)): 3.08 h
Tmax ([1]; 200 mg, plasma tmax, 200 mg bid capsule, fasted, elderly, day 7, median (min–max)): 1 h
AUC(0-t) ([1]; 500 mg, 500 mg bid capsule, fed, nonelderly, day 11, geo mean (CV%)): 9300 ng·h/mL
half-life ([1]; 500 mg, plasma t1/2 (apparent terminal), 500 mg bid capsule, fed, nonelderly, day 11, geo mean (CV%)): 6.82 h
half-life ([1]; 500 mg, plasma t1/2,eff (2–12 h postdose), 500 mg bid capsule, fed, nonelderly, day 11, geo mean (CV%)): 3.01 h
Tmax ([1]; 500 mg, plasma tmax, 500 mg bid capsule, fed, nonelderly, day 11, median (min–max)): 3 h
Tmax ([1]; mean plasma tmax, single 10–400 mg solution, fasted): 0.5 h
half-life ([1]; plasma t1/2,eff, after bid doses): 2 to 3 h
Tmax ([1]; plasma tmax, generally observed, all formulations and doses): 0.5 to 1.5 h
Tmax ([1]; plasma tmax, repeated dosing, compared with CSF): 0.5 to 1 h
half-life ([1]; terminal plasma t1/2, single doses, across dose range): 2 to 8 h
time to steady-state ([1]; multiple bid dosing, morning trough plasma concentrations): ≤ 2 days
plasma trough (12 hours postdose) lower than peak levels ([1]; repeated bid dosing ≥50 mg, steady state): up to 61 fold
increase in AUC with ninefold increase in dose ([1]; single doses 200–1800 mg): 24 fold
CSF AUC(0–12 h) ([2]; 20 mg bid solution, fasted, nonelderly, day 11, estimated as plasma AUC × 0.05): 6 ng·h/mL
CSF concentration, Max (C 3 h) ([2]; 20 mg bid solution, fasted, nonelderly, day 11, estimated, mean × 1.6): 0.8 ng/mL
CSF AUC(0–12 h) [2, 3]: 17.3 (34.8) ng.h/mL
CSF concentration, Max (C 3 h) [2, 3]: 2.32 (34.5) ng/mL
CSF AUC(0–12 h) ([2]; 100 mg bid solution, fed, nonelderly, day 11, geo mean (CV%)): 44.7 (27.2) ng.h/mL
CSF AUC(0–12 h) ([2]; 200 mg bid capsule, fasted, elderly, day 7, estimated as plasma AUC × 0.05): 195 ng·h/mL
CSF concentration, Max (C 3 h) ([2]; 200 mg bid capsule, fasted, elderly, day 7, estimated, mean × 1.6): 25.9 ng/mL
CSF AUC(0–12 h) ([2]; 200 mg bid solution, fasted, nonelderly, day 11, estimated as plasma AUC × 0.05): 91.7 ng·h/mL
CSF concentration, Max (C 3 h) ([2]; 300 mg bid capsule, fasted, elderly, day 7, estimated, mean × 1.6): 37.7 ng/mL
CSF AUC(0–12 h) ([2]; 300 mg bid capsule, fasted, elderly, day 7, geo mean (CV%)): 275 (40.7) ng.h/mL
CSF AUC(0–12 h) ([2]; 400 mg bid capsule, fasted, nonelderly, day 11, geo mean (CV%)): 236 (25.0) ng.h/mL
CSF concentration, Max (C 3 h) ([2]; 500 mg bid capsule, fed, nonelderly, day 11, estimated, mean × 1.6): 62.0 ng/mL
CSF concentration, Max (C 3 h) ([2]; 500 mg bid tablet, fasted, elderly, day 11, estimated, mean × 1.6): 79.0 ng/mL
CSF AUC(0–12 h) ([2]; 500 mg bid tablet, fasted, elderly, day 11, geo mean (CV%)): 530 (36.6) ng.h/mL
CSF AUC(0–12 h) ([2]; 800 mg bid tablet, fasted, elderly, day 11, estimated as plasma AUC × 0.05): 1230 ng·h/mL
CSF concentration, Max (C 3 h) ([2]; 800 mg bid tablet, fasted, elderly, day 11, estimated, mean × 1.6): 163.7 ng/mL
concentration at 3 h ([2]; human, CSF, oral, 100 mg, CSF concentration, Max (C 3 h), 100 mg bid solution, fed, nonelderly, day 11, geo mean (CV%)): 6.02 ng/mL
concentration at 12 h ([2]; human, CSF, oral, 100 mg, CSF concentration, 100 mg bid solution, fed, nonelderly, day 11, geo mean (CV%)): 1.92 ng/mL
half-life ([2]; human, CSF, oral, 100 mg, CSF t1/2, 100 mg bid solution, fed, nonelderly, day 11, geo mean (CV%)): 6.38 h
concentration at 12 h ([2]; human, CSF, oral, 200 mg, CSF concentration, 200 mg bid capsule, fasted, elderly, day 7, estimated, mean × 0.53): 8.6 ng/mL
concentration at 12 h ([2]; human, CSF, oral, 500 mg, CSF concentration, 500 mg bid capsule, fed, nonelderly, day 11, estimated, mean × 0.53): 20.5 ng/mL
CSF trough lower than peak levels ([2]; repeated bid dosing ≥50 mg): approximately threefold lower
time of highest concentrations in the CSF ([2]; single oral solution, CSF sampling 1, 1.5 and 3 hours): 3 h
